Measured values: ChEMBL document CHEMBL5143747, “Discovery and Optimization of Triazolopyrimidinone Derivatives as Selective NLRP3 Inflammasome Inhibitors” (ACS Med Chem Lett, 2022)
pIC50: −log10 of the molar value. Converted amounts (≈) assume the structure as drawn.

How the values were obtained:
[1] = molecular target: T1, NACHT, LRR and PYD domains-containing protein 3 (Homo sapiens, UniProt Q96P20); assay: Inhibition of NLRP3 inflammasome in LPS-pretreated PBMC (unknown origin) assessed as reduction in IL-1beta release pretreated for 30 mins followed by ATP stimulated and measured after 1 hr by ELISA; assay type: cell-based; settings: for pIC50: read-out: IC50; for IC50: pbmc
[2] = molecular target: T1, NACHT, LRR and PYD domains-containing protein 3; assay: Inhibition of NLRP3 inflammasome in LPS-pretreated PBMC (unknown origin) assessed as reduction in IL-1beta release at 40 uM pretreated for 30 mins followed by ATP stimulated and measured after 1 hr by ELISA relative to control; assay type: cell-based; settings: time 90.0 min
[3] = Protein binding in rat plasma; assay type: ADME, cell-free; settings: read-out: PPB (converted)
[4] = Thermodynamic solubility of compound in pH 7.4 phosphate buffer incubated for 24 hrs under shaking condition by UPLC analysis; assay type: physicochemical; settings: read-out: Therm_solubility
[5] = Protein binding in mouse plasma; assay type: ADME, cell-free; settings: read-out: PPB (converted)
[6] = Permeability of compound in pH 7.4 phosphate buffered saline at 10 uM measured after 4 hrs by PAMPA; assay type: ADME; settings: read-out: permeability
[7] = Inhibition of LPS-stimulated TNF-alpha release in human PBMC measured after 4 hrs by ELISA; assay type: toxicity, cell-based
[8] = Inhibition of LPS-stimulated IL-6 release in human PBMC measured after 4 hrs by ELISA; assay type: toxicity, cell-based
[9] = Protein binding in human plasma; assay type: ADME, cell-free; settings: read-out: PPB (converted)
[10] = molecular target: T1, NACHT, LRR and PYD domains-containing protein 3; assay: Inhibition of NLRP3 inflammasome in LPS-pretreated human whole blood assessed as reduction in IL-1beta release pretreated for 30 mins followed by ATP stimulated and measured after 1 hr by HTRF assay; assay type: tissue-based
[11] = molecular target: T1, NACHT, LRR and PYD domains-containing protein 3; assay: Inhibition of NLRP3 inflammasome in LPS-pretreated human THP1-ASC-GFP cells assessed as reduction in speck positive cells measured after 30 mins in presence of caspase inhibitor zVAD-FMK by Hoechst 33342 staining based confocal microscopy; assay type: cell-based

T1 sequence (Q96P20 whole entry, the tested form may be a part): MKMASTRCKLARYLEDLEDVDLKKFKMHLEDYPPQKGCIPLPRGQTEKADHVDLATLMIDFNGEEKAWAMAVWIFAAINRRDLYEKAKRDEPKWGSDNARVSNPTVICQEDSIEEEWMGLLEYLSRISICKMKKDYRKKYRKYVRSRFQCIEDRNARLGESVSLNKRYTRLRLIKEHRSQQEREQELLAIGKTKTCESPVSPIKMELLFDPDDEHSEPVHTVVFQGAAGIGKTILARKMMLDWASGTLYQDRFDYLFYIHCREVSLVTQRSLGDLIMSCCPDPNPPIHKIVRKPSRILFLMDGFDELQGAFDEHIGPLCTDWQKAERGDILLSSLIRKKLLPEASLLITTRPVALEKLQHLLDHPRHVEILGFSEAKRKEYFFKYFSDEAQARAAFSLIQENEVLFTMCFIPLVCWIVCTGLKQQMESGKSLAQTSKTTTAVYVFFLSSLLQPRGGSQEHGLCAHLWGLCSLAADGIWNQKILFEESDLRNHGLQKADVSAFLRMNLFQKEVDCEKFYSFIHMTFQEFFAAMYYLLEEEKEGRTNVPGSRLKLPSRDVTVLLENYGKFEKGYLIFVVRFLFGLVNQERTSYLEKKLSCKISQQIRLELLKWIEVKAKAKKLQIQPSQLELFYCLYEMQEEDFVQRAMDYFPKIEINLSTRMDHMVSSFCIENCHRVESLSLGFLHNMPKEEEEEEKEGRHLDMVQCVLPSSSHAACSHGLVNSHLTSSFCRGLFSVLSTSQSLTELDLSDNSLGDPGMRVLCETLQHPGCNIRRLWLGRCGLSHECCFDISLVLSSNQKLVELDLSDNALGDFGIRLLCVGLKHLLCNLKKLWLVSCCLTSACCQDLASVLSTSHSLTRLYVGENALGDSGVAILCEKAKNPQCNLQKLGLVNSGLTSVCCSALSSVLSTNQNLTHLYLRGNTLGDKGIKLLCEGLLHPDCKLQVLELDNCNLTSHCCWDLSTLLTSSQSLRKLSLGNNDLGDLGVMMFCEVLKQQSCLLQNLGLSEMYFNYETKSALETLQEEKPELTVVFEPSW

Row | pIC50 [1] | SMILES | further results
1 | 5.47 | O=c1cc(CC2CCOCC2)[nH]c2nc(Nc3c4c(cc5c3CCC5)CCC4)nn12 | –
2 | < 4.40 | Cc1cc2[nH]c(Nc3c4c(cc5c3CCC5)CCC4)nn2c(=O)n1 | –
3 | 5.00 | O=c1cc(Cc2ccc(Cl)cc2)[nH]c2nc(Nc3c4c(cc5c3CCC5)CCC4)nn12 | –
4 | < 4.40 | Cc1ccn2nc(Nc3c4c(cc5c3CCC5)CCC4)nc2n1 | –
5 | 5.11 | O=c1cc(CN2CCOCC2)[nH]c2nc(Nc3c4c(cc5c3CCC5)CCC4)nn12 | –
6 | < 4.40 | O=c1cc(C2CCCNC2)[nH]c2nc(Nc3c4c(cc5c3CCC5)CCC4)nn12 (stereo not drawn) | –
7 | – | O=c1cc[nH]c2nc(Nc3c4c(cc5c3CCC5)CCC4)nn12 | inhibition [2]: 77%
8 | 5.52 | COc1ccc(Cc2cc(=O)n3nc(Nc4c5c(cc6c4CCC6)CCC5)nc3[nH]2)cc1 | –
9 | < 4.40 | Cc1[nH]c2nc(Nc3c4c(cc5c3CCC5)CCC4)nn2c(=O)c1C#N | –
10 | 5.20 | O=c1cc(C2CCOCC2)[nH]c2nc(Nc3c4c(cc5c3CCC5)CCC4)nn12 | –
11 | 5.06 | CN1CCOC(Cc2cc(=O)n3nc(Nc4c5c(cc6c4CCC6)CCC5)nc3[nH]2)C1 (stereo not drawn) | –
12 | 5.62 | N#Cc1cccc(Cc2cc(=O)n3nc(Nc4c5c(cc6c4CCC6)CCC5)nc3[nH]2)c1 | –
13 | – | S=c1cc(CC2CCCCO2)[nH]c2nc(Nc3c4c(cc5c3CCC5)CCC4)nn12 (stereo not drawn) | fraction unbound [3]: 0.002; solubility thermodynamic at 24 h [4]: 730 µM (≈ 308 µg/mL); fraction unbound [5]: 0.004; Papp at 4 h, 10 µM [6]: < 0.0004 ×10⁻⁶ cm/s; pIC50 [7]: < 4.70; pIC50 [8]: < 4.70; fraction unbound [9]: 0.001
14 | 5.74 | Cn1ccc(Cc2cc(=O)n3nc(Nc4c5c(cc6c4CCC6)CCC5)nc3[nH]2)n1 | –
15 | 5.26 | Cn1cnc(Cc2cc(=O)n3nc(Nc4c5c(cc6c4CCC6)CCC5)nc3[nH]2)c1 | –
16 | 5.06 | CCc1cc(=O)n2nc(Nc3c4c(cc5c3CCC5)CCC4)nc2[nH]1 | –
17 | < 4.40 | O=c1cc(C2CCNCC2)[nH]c2nc(Nc3c4c(cc5c3CCC5)CCC4)nn12 | –
18 | < 4.40 | CN1CCC(c2cc(=O)n3nc(Nc4c5c(cc6c4CCC6)CCC5)nc3[nH]2)CC1 | –
19 | 5.31 | Cn1cc(Cc2cc(=O)n3nc(Nc4c5c(cc6c4CCC6)CCC5)nc3[nH]2)cn1 | –
20 | 5.47 | O=c1cc(CCc2ccccc2)[nH]c2nc(Nc3c4c(cc5c3CCC5)CCC4)nn12 | –
21 | 5.80 | N#Cc1ccc(Cc2cc(=O)n3nc(Nc4c5c(cc6c4CCC6)CCC5)nc3[nH]2)cc1 | –
22 | – | O=c1cc(Cc2ccccn2)[nH]c2nc(Nc3c4c(cc5c3CCC5)CCC4)nn12 | solubility thermodynamic at 24 h [4]: 2.4 µM (≈ 0.956 µg/mL); Papp at 4 h, 10 µM [6]: < 0.018 ×10⁻⁶ cm/s; pIC50 [7]: < 4.40; pIC50 [8]: < 4.40; fraction unbound [9]: 0.002
23 | 5.27 | O=c1cc(CC2COCCN2)[nH]c2nc(Nc3c4c(cc5c3CCC5)CCC4)nn12 (stereo not drawn) | –
24 | 5.47 | O=c1cc(Cc2cccnc2)[nH]c2nc(Nc3c4c(cc5c3CCC5)CCC4)nn12 | –
25 | 5.72 | O=c1cc(CC2CCCCO2)[nH]c2nc(Nc3c4c(cc5c3CCC5)CCC4)nn12 (stereo not drawn) | pIC50 [10]: < 4.40; solubility thermodynamic at 24 h [4]: 24 µM (≈ 9.73 µg/mL); pIC50 [11]: 5.89; fraction unbound [5]: 0.002; Papp at 4 h, 10 µM [6]: 0.038 ×10⁻⁶ cm/s; pIC50 [7]: < 4.40; pIC50 [8]: < 4.40; fraction unbound [9]: 0.001

Row | pIC50 [1] | SMILES | further results
26 | < 4.40 | Cc1c[nH]c2nc(Nc3c4c(cc5c3CCC5)CCC4)nn2c1=O | –
27 | 5.22 | CN1CCOCC1Cc1cc(=O)n2nc(Nc3c4c(cc5c3CCC5)CCC4)nc2[nH]1 (stereo not drawn) | –
28 | – | S=c1cc(Cc2ccccn2)[nH]c2nc(Nc3c4c(cc5c3CCC5)CCC4)nn12 | fraction unbound [3]: 0.015; solubility thermodynamic at 24 h [4]: 1500 µM (≈ 622 µg/mL); fraction unbound [5]: 0.004; Papp at 4 h, 10 µM [6]: < 0.018 ×10⁻⁶ cm/s; pIC50 [7]: < 4.40; pIC50 [8]: < 4.40; fraction unbound [9]: 0.019
29 | – | Cc1cc(=O)n2nc(Nc3c4c(cc5c3CCC5)CCC4)cc2[nH]1 | inhibition [2]: 57%
30 | – | N#Cc1ccccc1Cc1cc(=O)n2nc(Nc3c4c(cc5c3CCC5)CCC4)nc2[nH]1 | IC50 [1]: Nd(Insoluble)
31 | 5.30 | O=c1cc(CC2CCOC2)[nH]c2nc(Nc3c4c(cc5c3CCC5)CCC4)nn12 (stereo not drawn) | –
32 | 5.55 | COCCc1cc(=O)n2nc(Nc3c4c(cc5c3CCC5)CCC4)nc2[nH]1 | –
33 | 5.35 | O=c1cc(CC2CCCCC2)[nH]c2nc(Nc3c4c(cc5c3CCC5)CCC4)nn12 | –
34 | < 4.40 | CN1CCN(Cc2cc(=O)n3nc(Nc4c5c(cc6c4CCC6)CCC5)nc3[nH]2)CC1 | –
35 | 5.24 | O=c1cc(Cc2ccncc2)[nH]c2nc(Nc3c4c(cc5c3CCC5)CCC4)nn12 | –
36 | 5.77 | O=c1cc(Cc2ncccn2)[nH]c2nc(Nc3c4c(cc5c3CCC5)CCC4)nn12 | –
37 | 5.74 | O=c1cc(Cc2ccccc2)[nH]c2nc(Nc3c4c(cc5c3CCC5)CCC4)nn12 | –
38 | – | O=c1cc(Cc2ccccc2Cl)[nH]c2nc(Nc3c4c(cc5c3CCC5)CCC4)nn12 | IC50 [1]: Nd(Insoluble)
39 | < 4.40 | Cc1[nH]c2nc(Nc3c4c(cc5c3CCC5)CCC4)nn2c(=O)c1Cc1ccccc1 | –
40 | 5.43 | O=c1cc(Cc2ccccc2F)[nH]c2nc(Nc3c4c(cc5c3CCC5)CCC4)nn12 | –
41 | – | Cc1cc(=O)n2nc(Nc3c4c(cc5c3CCC5)CCC4)nc2[nH]1 | inhibition [2]: 70%
42 | < 4.40 | Cc1[nH]c2nc(Nc3c4c(cc5c3CCC5)CCC4)nn2c(=O)c1C | –
43 | < 4.40 | COc1c(C)[nH]c2nc(Nc3c4c(cc5c3CCC5)CCC4)nn2c1=O | –
44 | 5.70 | Cn1nccc1Cc1cc(=O)n2nc(Nc3c4c(cc5c3CCC5)CCC4)nc2[nH]1 | –
45 | < 4.40 | Cc1cc(=O)n2nc(Nc3c4c(cc5c3CCC5)CCC4)nc2n1C | –
46 | 5.40 | Cc1ccccc1Cc1cc(=O)n2nc(Nc3c4c(cc5c3CCC5)CCC4)nc2[nH]1 | –
47 | 5.55 | O=c1cc(Cc2cccc(Cl)c2)[nH]c2nc(Nc3c4c(cc5c3CCC5)CCC4)nn12 | –
48 | 5.31 | CN1CCCC(c2cc(=O)n3nc(Nc4c5c(cc6c4CCC6)CCC5)nc3[nH]2)C1 (stereo not drawn) | –
49 | 4.80 | Cn1cncc1Cc1cc(=O)n2nc(Nc3c4c(cc5c3CCC5)CCC4)nc2[nH]1 | –
